Assay in all cases: Bliss excess, mean over the matrix (fraction); higher = more synergy
One test has as its system 8-MG-BA (Glioblastoma). The method in brief:
(§1)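 Bliss excess equals the observed combination effect minus the expected value EA + EB − EA·EB, where EA and EB are the effects of each agent alone. Combination Emax is the second-highest inhibition within the matrix. Inhibition was scaled from CellTiter-Glo 2.0 luminescence, with 0 set by vehicle wells and 1 by blank wells, after 72 hours of two-drug dosing of cells plated in 1536-well plates.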

The test system of test [1] is A3-KAW (B-Cell Non-Hodgkin's Lymphoma). The method in brief: as §1
For the next test, the system named is A498 (Kidney Carcinoma). The method in brief:
as §1

In test [2] the test system is A549 (Lung Adenocarcinoma). The method, boiled down: as §1
A further test has as its system ARH-77 (Non-Cancerous). The method in brief: as §1
Test [3] deals with CAL-29 (Bladder Carcinoma). The method, boiled down:
as §1

The next test relates to GI-ME-N (Neuroblastoma). The method in brief: as §1
Test [4] concerns HCC1954 (Breast Carcinoma). The method in brief: as §1
The next test relates to IGR-37 (Melanoma). The method, boiled down:
as §1

Test [5] has as its system JSC-1 (B-Cell Non-Hodgkin's Lymphoma). The method, boiled down:
as §1

Another test concerns LN-405 (Glioblastoma). The method, boiled down:
as §1

Test [6] relates to NCI-H2066 (Squamous Cell Lung Carcinoma). The method, boiled down: as §1
For another test, the system named is NCI-H2591 (Mesothelioma). The method in brief:
as §1

Test [7] relates to NCI-H64 (Small Cell Lung Carcinoma). The method, boiled down: as §1
Test [8] relates to PANC-10-05 (Pancreatic Carcinoma). The method, boiled down: as §1
The test system of test [9] is SK-MES-1 (Squamous Cell Lung Carcinoma). The method in brief: as §1
Test [10] concerns SK-MG-1 (Low Grade Glioma). The method, boiled down:
as §1

The test system of test [11] is TT (Thyroid Gland Carcinoma). The method in brief: as §1
Test [12] deals with TT2609-C02 (Thyroid Gland Carcinoma). The method in brief: as §1
Test [13] relates to VCaP (Prostate Carcinoma). The method in brief: as §1

`COc1cccc2c1C(=O)c1c(O)c3c(c(O)c1C2=O)C[C@@](O)(C(=O)CO)C[C@@H]3O[C@H]1C[C@H](N)[C@H](O)[C@H](C)O1` [Doxorubicin] + Cc1cc2ncnn2cc1Nc1ncc2c(n1)n(C1CCOCC1)c(=O)n2C [AZD7648] (first compound max 1 µM, 7x7, partner max 10 µM): the Bliss excess in the test with 8-MG-BA (Glioblastoma) came out at 0.0675; in test [1], 0.0751; in the test on A498 (Kidney Carcinoma), 0.0163; in test [2], 0.0564; in the test on ARH-77 (Non-Cancerous), 0.0783; in [3] it was 0.0489. The Bliss excess in the test with GI-ME-N (Neuroblastoma) is 0.0207; in test [4], 0.0849; in the test on IGR-37 (Melanoma), 0.0631; in test [5], 0.063; in the test with LN-405 (Glioblastoma), -0.0125; in [6], -0.0396. In addition, the Bliss excess in the test with NCI-H2591 (Mesothelioma) was 0.0556; in [7], 0.0063; in test [8], -0.0557; in test [9], 0.0477; in test [10], 0.133; in test [11] it was 0.01. Also, the figures for the Bliss excess in test [12] and in [13] were 0.0486 and 0.0275, respectively.
In the case of `COc1cc2ncnc(Nc3ccc(F)c(Cl)c3)c2cc1OCCCN1CCOCC1` [Gefitinib] + CC(C)n1c(=O)n(C)c2cnc3cc(F)c(-c4ccc(OCCCN5CCCCC5)nc4)cc3c21 [AZD1390] (first compound max 10 µM, 7x7, partner max 0.3 µM), the Bliss excess in the test on 8-MG-BA (Glioblastoma) was -0.0604; in [1], -0.0098; with A498 (Kidney Carcinoma), -0.11; in test [2] it was -0.0544; with ARH-77 (Non-Cancerous), -0.0785; in test [3], -0.104. Besides, the Bliss excess in the test on GI-ME-N (Neuroblastoma) is -0.0827; in test [4], -0.0366; with IGR-37 (Melanoma) it was -0.0865; in test [5] it was -0.0911; with LN-405 (Glioblastoma), -0.076; in [6], 0.0099. Further, the Bliss excess with NCI-H2591 (Mesothelioma) was -0.0801; in test [7], -0.022; in test [8] it was -0.0835; in [9], -0.0755; in test [10], -0.078; in test [11], -0.0526. Moreover, the values for the Bliss excess in test [12] and in [13] were -0.0716 and -0.0429, respectively.
Consider `CS(=O)(=O)CCNCc1ccc(-c2ccc3ncnc(Nc4ccc(OCc5cccc(F)c5)c(Cl)c4)c3c2)o1` [Lapatinib] + C[C@@H](Oc1cc(-c2cnn(C3CCNCC3)c2)cnc1N)c1c(Cl)ccc(F)c1Cl [Crizotinib] (first compound max 10 µM, 7x7, partner max 10 µM), for which the Bliss excess with 8-MG-BA (Glioblastoma) is -0.0365; in [1] it was 0.0316; with A498 (Kidney Carcinoma) it was -0.0592; in test [2] it was -0.0606; with ARH-77 (Non-Cancerous), -0.0445; in [3] it was 0.0215. Besides, the Bliss excess in the test on GI-ME-N (Neuroblastoma) was -0.0505; in test [4] it was 0.0048; in the test with IGR-37 (Melanoma), -0.0432; in test [5] it was -0.0008; in the test with LN-405 (Glioblastoma), -0.0158; in [6], -0.0066. The Bliss excess in the test on NCI-H2591 (Mesothelioma) is -0.0493; in test [7], -0.0564; in test [8] it was -0.109; in [9], -0.0288; in test [10], -0.0513; in [11], -0.002. Further, the Bliss excess was -0.023 in [12] and -0.0653 in [13].
Consider `CC(=O)c1c(C)c2cnc(Nc3ccc(N4CCNCC4)cn3)nc2n(C2CCCC2)c1=O` [Palbociclib] + CC1(C)CCC(CN2CCN(c3ccc(C(=O)NS(=O)(=O)c4ccc(NCC5CCOCC5)c([N+](=O)[O-])c4)c(Oc4cnc5[nH]ccc5c4)c3)CC2)=C(c2ccc(Cl)cc2)C1 [Venetoclax] (first compound max 10 µM, 7x7, partner max 1 µM), for which the Bliss excess with 8-MG-BA (Glioblastoma) was 0.0049; in test [1] it was -0.0332; with A498 (Kidney Carcinoma) it was -0.021; in test [2] it was -0.0056; with ARH-77 (Non-Cancerous), 0.0762; in test [3], -0.0523. For the same compound, the Bliss excess with GI-ME-N (Neuroblastoma) was -0.0514; in test [4] it was -0.0424; in the test with IGR-37 (Melanoma) it was -0.0528; in test [5], -0.0127; with LN-405 (Glioblastoma), -0.0391; in test [6] it was -0.027. For the same compound, the Bliss excess with NCI-H2591 (Mesothelioma) was 0.0045; in test [7], -0.0185; in test [8], -0.107; in [9] it was -0.0114; in test [10] it was -0.0134; in test [11], 0.0138. Besides, the Bliss excess in [12] was 0.0069; in test [13], -0.0076.
Consider `CC(=O)c1c(C)c2cnc(Nc3ccc(N4CCNCC4)cn3)nc2n(C2CCCC2)c1=O` [Palbociclib] + Cc1c2c(nn1C)CSCc1cc(n(C)n1)CSc1cc(c3ccccc3c1)OCCCc1c(C(=O)O)n(C)c3c-2c(Cl)ccc13 [AZD5991] (first compound max 10 µM, 7x7, partner max 1 µM), for which the Bliss excess in the test with 8-MG-BA (Glioblastoma) is -0.0424; in [1], -0.0158; in the test with A498 (Kidney Carcinoma) it was -0.0779; in test [2], 0.0338; in the test on ARH-77 (Non-Cancerous), -0.0248; in test [3], -0.0532. Further, the Bliss excess with GI-ME-N (Neuroblastoma) was -0.0873; in [4], -0.09; with IGR-37 (Melanoma) it was -0.0335; in test [5] it was -0.0567; in the test with LN-405 (Glioblastoma), -0.0445; in test [6], -0.0361. For the same compound, the Bliss excess in the test with NCI-H2591 (Mesothelioma) is -0.0328; in test [7], -0.0049; in [8] it was -0.0768; in test [9] it was -0.0463; in [10] it was -0.0698; in test [11], 0.0684. Besides, the Bliss excess in test [12] was -0.0822; in test [13], -0.0284.
In the case of `CC(=O)c1c(C)c2cnc(Nc3ccc(N4CCNCC4)cn3)nc2n(C2CCCC2)c1=O` [Palbociclib] + Cn1cnc2c(F)c(Nc3ccc(Br)cc3Cl)c(C(=O)NOCCO)cc21 [Selumetinib] (first compound max 10 µM, 7x7, partner max 10 µM), the Bliss excess in the test with 8-MG-BA (Glioblastoma) is -0.0061; in [1], 0.182; with A498 (Kidney Carcinoma) it was -0.0228; in test [2] it was -0.0413; in the test with ARH-77 (Non-Cancerous), -0.0147; in test [3], 0.0021. The Bliss excess in the test with GI-ME-N (Neuroblastoma) is -0.0012; in test [4] it was -0.0152; with IGR-37 (Melanoma) it was 0.0324; in test [5] it was 0.0842; with LN-405 (Glioblastoma) it was -0.0566; in test [6] it was -0.0344. Also, the Bliss excess in the test on NCI-H2591 (Mesothelioma) was -0.0161; in test [7], -0.014; in test [8], -0.0409; in [9], -0.0088; in test [10], 0.0489; in test [11], 0.0418. The figures for the Bliss excess in test [12] and in [13] were -0.0666 and -0.012, respectively.
In the case of `COc1cccc(OCCCN)c1-c1cc(Nc2cnc(C#N)cn2)n[nH]1` [Prexasertib] + C=CCn1c(=O)c2cnc(Nc3ccc(N4CCN(C)CC4)cc3)nc2n1-c1cccc(C(C)(C)O)n1 [AZD1775] (first compound max 1 µM, partner max 1 µM), the Bliss excess is 0.0358 in the test on 8-MG-BA (Glioblastoma); 0.0424 in test [1]; -0.0716 in the test with A498 (Kidney Carcinoma); 0.139 in test [2]; 0.0493 in the test on ARH-77 (Non-Cancerous); -0.0079 in [3]. In addition, the Bliss excess with GI-ME-N (Neuroblastoma) is 0.0161; in [4], 0.114; in the test on IGR-37 (Melanoma), 0.0322; in test [5] it was 0.0682; with LN-405 (Glioblastoma), 0.0469; in test [6], -0.0337. Also, the Bliss excess with NCI-H2591 (Mesothelioma) was 0.0951; in test [7] it was 0.0127; in test [8], -0.0342; in [9] it was -0.0425; in test [10], 0.0712; in test [11] it was -0.103. For the same compound, the Bliss excess was found to be 0.0015 in test [12] and 0.022 in test [13].
